The record followed here is US6413944B1 (Regents of the University of Michigan, priority 1991, dated 2002).

The subject of one data set is HIV. In kind it is cell-based. The following applies: persistently infected monocyte/macrophages and T-cells; reverse transcriptase, p24 core antigen, infectious virus; in words.
A further data set concerns HCMV. Description: HCMV plaque (focus) reduction assay in HFF cells. The class given is cell-based, human cytomegalovirus. As to conditions: in words.
In another data set the test system is HIV-1. Description: microbe, parasite or virus in culture. As to conditions: for pIC50: Human immunodeficiency virus 1, CEM-SS. The method, then: CEM-SS cells were seeded at 10,000 cells per well into 96-cell plates precoated with poly L-lysine. The cell monolayers were infected with about 50 plaque forming units of HIV-1. After 1 hr for virus attachment, the cell monolayers were overlaid with growth medium with or without added test compound. After 3 days incubation at 37° C. in a CO2 incubator, the cell monolayers received a second overlay of growth medium with or without added test compound and incubation at 37° C. continued for a total of 5 days. HIV-1 plaques were counted, the counts entered into a computer and a IC50 for HIV-1 plaque formation was determined. Each experiment was replicated at least once.
Dose-response relationships were used to compare drug effects. These were constructed by linearly regressing the percent inhibition of parameters derived in the preceding sections against log drug concentrations. The 50% inhibitory (I50) concentrations were calculated from the regression lines.

Data set [1] can be described thus: Cytotoxicity by uptake of [3H]thymidine in uninfected CEM-SS cells. The class given is cell-based. The following applies: human; uptake of [3H]thymidine in uninfected CEM-SS cells (Table I); read-out: 50% Inhibitory Concentration, Cytotoxicity.
Protocol: CEM-SS cells were seeded in 96 well plates (10,000 cells per well) in growth medium containing various concentrations of test compound and incubated at 37° C. in a CO2 incubator. After 36 hours incubation the cells were pulse-labeled for 4 hours at 37° C. with 1 μCi ^3H-TdR uptake into cellular DNA. Controls consisted of CEM-SS cells not treated with drug and pulse-labeled for 4 hours with [^3H]thymidine (positive control) or harvested immediately after addition of [^3H]thymidine (negative control). The harvested samples were counted by scintillation spectrometry to obtain a mean±one S.D. for each set of triplicate wells. The data were entered into a computer and used to determine a IC50 for cell cytotoxicity. Each experiment was replicated at least once.
The target in a further data set is RT (Human immunodeficiency virus type 1 group M subtype B, UniProt P04585). Put plainly: RT inhibition assays. The following applies: in words. In kind it is biochemical.

pIC50: −log10 of the molar value. Read-outs that look alike come from different tables or passages of the source.

Take `Cc1cn([C@H]2C[C@H](N=[N+]=[N-])[C@@H](CO)O2)c(=O)[nH]c1=O` [AZT, zidovudine]: the “activity in reducing HIV production in persistently infected cells” value with HIV is on record as “not active”. For the same compound, in the data set with HCMV, the “activity against HCMV” value was “inactive”. The pIC50 is 8.57 in the data set on HIV-1 (read-out: 50% Inhibitory Concentration, Antiviral Activity: HIV, syncytial assay in CEM-SS cells (Table I)); 6.68 with HIV-1 (read-out: Syncytial Assay 50% Inhibitory Concentration, HIV-1G-691 (post AZT therapy), clinical isolate resistant to AZT); 9.70 with HIV-1 (read-out: Syncytial Assay 50% Inhibitory Concentration, HIV-1G-762 (pre AZT therapy), clinical isolate sensitive to AZT); 5.14 in the data set with HIV-1 (read-out: Syncytial Assay 50% Inhibitory Concentration, HIV-1G-910 (post AZT therapy)); above 9.00 in the data set on HIV-1 (read-out: Syncytial Assay 50% Inhibitory Concentration, HIV-1H-1112 (pre AZT therapy)); 8.70 with HIV-1 (read-out: Syncytial Assay 50% Inhibitory Concentration, HIV-1IIIB (Table III)). Further, the “Differential Selectivity (HIV)” value in the data set with HIV-1 (cytotoxicity in CEM-SS cells versus HIV syncytial assay) turned out to be 1852. Also, in data set [1], the IC50 at 36 h came to 5 µM.

For the compound `CN1N=C(N)c2cn(C3OC(COP(=O)(O)OP(=O)(O)OP(=O)(O)O)C(O)C3O)c3ncnc1c23` (stereo not drawn) [TCN-triphosphate], on RT, the “inhibition of RT enzyme” value is given as “do not act via inhibition of this enzyme”.

As to `Nc1ccn([C@H]2CC[C@@H](CO)O2)c(=O)n1` [ddC, dideoxycytidine], in the data set on HIV, the “activity in reducing HIV production in persistently infected cells” value is listed as “not active”.
